{"source": "paper PMC4335020", "about": "“Single Oral Dose Pharmacokinetics of Decursin and Decursinol Angelate in Healthy Adult Men and Women” (PLoS ONE, 2015)", "experiment": "Single oral dose human plasma pharmacokinetics of D, DA and DOH after Cogni.Q", "format": "in vivo", "conditions": "human, plasma", "excerpt": "Ten healthy male and 10 female subjects were recruited by public announcement in Amarillo, TX, from January 2013 to April 2013 (see Fig. 1 CONSORT diagram). The sample size for each gender was chosen without power calculation due to the lack of prior knowledge of PK parameter variance in humans. After receiving informed consent verbally and in writing, the health status of each candidate was confirmed by health questionnaire, plasma biochemistry (hepatic and renal functions), complete blood cell count (CBC), and a physical examination by a participating academic physician. Subjects with diabetes, or pregnant, perinatal and breastfeeding women were excluded. For the 48 hours preceding study visit until the final blood draw, all subjects were instructed to avoid taking any prescription or nonprescription drugs, vitamins, and herbal/dietary supplements. Each subject was compensated for participating in the study per TTUHSC IRB approved rate.\nEligible subjects arrived at our clinical facility at 0700 (7:00 am) on the test day after a fast beginning at 2200 (10:00 pm) the previous night. After a brief review of vital signs, the nurse placed an intravenous (IV) line with saline drip in one arm of each subject. A baseline pre-dose (hour 0) blood sample was drawn through the IV line; after that subjects swallowed four Cogni.Q vegicaps with 240 mL of water at hour 0 under direct supervision. Subjects stayed at the clinical facility in their room for the next 12 hours, returning at 24 and 48 hours. Blood was drawn at baseline (hour 0) and at 0.5, 1, 2, 3, 4, 6, 8, 12, 24 and 48 hours after dosing into Vacutainer Blood Collection Tube (Becton-Dickinson, Franklin Lakes, NJ. Product Number: 367874, Sodium heparin was used as anti-coagulant). Water was allowed as desired except for within the first hour after Cogni.Q consumption. All subjects received standardized meals at post-dose hours 4.5 and 9.5 but no food was allowed for at least the first 4 hours post-dose.\nPlasma was prepared by centrifuging the heparinized blood at 1000 g for 15 minutes at room temperature. Urine samples (40mL) were collected within time spans of 0–4, 4–8, 8–12 and 12–24 hours (total volume of urine was recorded). All plasma and urine samples were put on dry ice immediately and then stored at -80°C freezer until analysis.\nPlasma samples were extracted with a validated solid supported liquid extraction (SLE) method facilitated with a positive pressure manifold (Biotage, Charlotte, NC). Briefly, 100 μL of plasma sample was spiked with 5 μL of 10 ng/μL prednisolone (IS), diluted with 200 μL of LC-MS grade water, mixed and loaded onto ISOLUTE SLE+ 400 μL Array Well cartridges (Biotage, Charlotte, NC). A pulse of minimum positive pressure was applied to facilitate the samples absorption into the cartridges. After the samples were allowed to absorb for 5 min, the compounds were eluted with 2×500 μL tert-butyl methyl ether. The eluent was dried in a Speedvac and the resulting residue was reconstituted in 50 μL of methanol for UHPLC-MS/MS analysis.\nEight-point calibration curves were constructed for D, DA and DOH, at concentrations of 0.1, 0.5, 1, 5, 10, 20, 50 and 100 μg/L for D and DA, and at concentrations of 1, 5, 10, 50, 100, 200, 500 and 1000 μg/L for DOH, respectively. The linear range was 0.1–100 μg/L (0.3–300 nmol/L), 0.1–100 μg/L (0.3–300 nmol/L) and 1–1000 μg/L (4–4000 nmol/L) for D, DA and DOH, respectively. The inter- and intra-assay CV were lower than 6.5% and the accuracy was between 90–105%. Calibration curve was run for each batch of samples analyzed. The mean calibration curve correlation coefficient (r) for D, DA and DOH was 0.999, 0.999 and 0.998, respectively (data from 7–10 calibration curves). In addition, 70% of the plasma samples were extracted and analyzed twice, the data from two replicate analyses were nearly identical and combined for final data analyses and presentation. […]", "note": "Where two headings read alike, the source gives them in different places."}
{"compound": "CC1(C)Oc2cc3oc(=O)ccc3cc2C[C@@H]1O", "note": "[DOH, decursinol]", "values": [{"measurement": "half-life", "setting": "oral, 4 Cogni.Q vegicaps, subject S9 (158 lb), read-out: Terminal t1/2, h (converted)", "result": 7.7, "unit": "h"}, {"measurement": "Tmax", "setting": "oral, 4 Cogni.Q vegicaps, subject S9 (158 lb), read-out: Tmax", "result": 3, "unit": "h"}, {"measurement": "AUC(0-t)", "setting": "oral, 4 Cogni.Q vegicaps, subject S10 (185 lb), read-out: AUC0-48h", "result": 17400, "unit": "nmol·h/L"}, {"measurement": "Cmax", "setting": "oral, 4 Cogni.Q vegicaps, subject S10 (185 lb), read-out: Cmax", "result": 1610, "unit": "nM"}, {"measurement": "half-life", "setting": "oral, 4 Cogni.Q vegicaps, subject S10 (185 lb), read-out: Terminal t1/2, h (converted)", "result": 8.8, "unit": "h"}, {"measurement": "Tmax", "setting": "oral, 4 Cogni.Q vegicaps, subject S10 (185 lb), read-out: Tmax", "result": 2, "unit": "h"}, {"measurement": "AUC(0-t)", "setting": "oral, 4 Cogni.Q vegicaps, subject S11 (178 lb), read-out: AUC0-48h", "result": 37300, "unit": "nmol·h/L"}, {"measurement": "Cmax", "setting": "oral, 4 Cogni.Q vegicaps, subject S11 (178 lb), read-out: Cmax", "result": 3420, "unit": "nM"}, {"measurement": "half-life", "setting": "oral, 4 Cogni.Q vegicaps, subject S11 (178 lb), read-out: Terminal t1/2, h (converted)", "result": 5, "unit": "h"}, {"measurement": "Tmax", "setting": "oral, 4 Cogni.Q vegicaps, subject S11 (178 lb), read-out: Tmax", "result": 2, "unit": "h"}, {"measurement": "AUC(0-t)", "setting": "oral, 4 Cogni.Q vegicaps, subject S12 (169 lb), read-out: AUC0-48h", "result": 29100, "unit": "nmol·h/L"}, {"measurement": "Cmax", "setting": "oral, 4 Cogni.Q vegicaps, subject S12 (169 lb), read-out: Cmax", "result": 2590, "unit": "nM"}, {"measurement": "half-life", "setting": "oral, 4 Cogni.Q vegicaps, subject S12 (169 lb), read-out: Terminal t1/2, h (converted)", "result": 7.9, "unit": "h"}, {"measurement": "Tmax", "setting": "oral, 4 Cogni.Q vegicaps, subject S12 (169 lb), read-out: Tmax", "result": 4, "unit": "h"}, {"measurement": "AUC(0-t)", "setting": "oral, 4 Cogni.Q vegicaps, subject S13 (192 lb), read-out: AUC0-48h", "result": 26100, "unit": "nmol·h/L"}, {"measurement": "Cmax", "setting": "oral, 4 Cogni.Q vegicaps, subject S13 (192 lb), read-out: Cmax", "result": 2420, "unit": "nM"}, {"measurement": "half-life", "setting": "oral, 4 Cogni.Q vegicaps, subject S13 (192 lb), read-out: Terminal t1/2, h (converted)", "result": 6, "unit": "h"}, {"measurement": "Tmax", "setting": "oral, 4 Cogni.Q vegicaps, subject S13 (192 lb), read-out: Tmax", "result": 2, "unit": "h"}, {"measurement": "AUC(0-t)", "setting": "oral, 4 Cogni.Q vegicaps, subject S14 (200 lb), read-out: AUC0-48h", "result": 25700, "unit": "nmol·h/L"}, {"measurement": "Cmax", "setting": "oral, 4 Cogni.Q vegicaps, subject S14 (200 lb), read-out: Cmax", "result": 3340, "unit": "nM"}, {"measurement": "half-life", "setting": "oral, 4 Cogni.Q vegicaps, subject S14 (200 lb), read-out: Terminal t1/2, h (converted)", "result": 5.3, "unit": "h"}, {"measurement": "Tmax", "setting": "oral, 4 Cogni.Q vegicaps, subject S14 (200 lb), read-out: Tmax", "result": 2, "unit": "h"}, {"measurement": "AUC(0-t)", "setting": "oral, 4 Cogni.Q vegicaps, subject S15 (177 lb), read-out: AUC0-48h", "result": 26100, "unit": "nmol·h/L"}, {"measurement": "Cmax", "setting": "oral, 4 Cogni.Q vegicaps, subject S15 (177 lb), read-out: Cmax", "result": 4020, "unit": "nM"}, {"measurement": "half-life", "setting": "oral, 4 Cogni.Q vegicaps, subject S15 (177 lb), read-out: Terminal t1/2, h (converted)", "result": 4.5, "unit": "h"}, {"measurement": "Tmax", "setting": "oral, 4 Cogni.Q vegicaps, subject S15 (177 lb), read-out: Tmax", "result": 1, "unit": "h"}, {"measurement": "Tmax", "setting": "oral, 4 Cogni.Q vegicaps, subject S16 (175 lb), read-out: Tmax", "result": 2, "unit": "h"}, {"measurement": "AUC(0-t)", "setting": "oral, 4 Cogni.Q vegicaps, subject S17 (147 lb), read-out: AUC0-48h", "result": 46700, "unit": "nmol·h/L"}, {"measurement": "Cmax", "setting": "oral, 4 Cogni.Q vegicaps, subject S17 (147 lb), read-out: Cmax", "result": 3740, "unit": "nM"}, {"measurement": "half-life", "setting": "oral, 4 Cogni.Q vegicaps, subject S17 (147 lb), read-out: Terminal t1/2, h (converted)", "result": 10.2, "unit": "h"}, {"measurement": "Tmax", "setting": "oral, 4 Cogni.Q vegicaps, subject S17 (147 lb), read-out: Tmax", "result": 2, "unit": "h"}, {"measurement": "half-life", "setting": "oral, 4 Cogni.Q vegicaps, subject S18 (180 lb), outlier, excluded from means, read-out: Terminal t1/2, h (converted)", "result": 16, "unit": "h"}, {"measurement": "AUC(0-t)", "setting": "oral, 4 Cogni.Q vegicaps, subject S18 (180 lb), read-out: AUC0-48h", "result": 16500, "unit": "nmol·h/L"}, {"measurement": "Cmax", "setting": "oral, 4 Cogni.Q vegicaps, subject S18 (180 lb), read-out: Cmax", "result": 1160, "unit": "nM"}, {"measurement": "Tmax", "setting": "oral, 4 Cogni.Q vegicaps, subject S18 (180 lb), read-out: Tmax", "result": 3, "unit": "h"}, {"measurement": "AUC(0-t)", "setting": "oral, 4 Cogni.Q vegicaps, subject S19 (130 lb), read-out: AUC0-48h", "result": 21400, "unit": "nmol·h/L"}, {"measurement": "Cmax", "setting": "oral, 4 Cogni.Q vegicaps, subject S19 (130 lb), read-out: Cmax", "result": 2270, "unit": "nM"}, {"measurement": "half-life", "setting": "oral, 4 Cogni.Q vegicaps, subject S19 (130 lb), read-out: Terminal t1/2, h (converted)", "result": 6.6, "unit": "h"}, {"measurement": "Tmax", "setting": "oral, 4 Cogni.Q vegicaps, subject S19 (130 lb), read-out: Tmax", "result": 6, "unit": "h"}, {"measurement": "half-life", "setting": "oral, subject S16 (175 lb), outlier, excluded from means, read-out: Terminal t1/2, h (converted)", "result": 15, "unit": "h"}, {"measurement": "AUC(0-t)", "setting": "oral, subject S16 (175 lb), read-out: AUC0-48h", "result": 16300, "unit": "nmol·h/L"}, {"measurement": "Cmax", "setting": "oral, subject S16 (175 lb), read-out: Cmax", "result": 1800, "unit": "nM"}, {"measurement": "AUC(0-t)", "setting": "oral, subject S20 (200 lb), read-out: AUC0-48h", "result": 17900, "unit": "nmol·h/L"}, {"measurement": "Cmax", "setting": "oral, subject S20 (200 lb), read-out: Cmax", "result": 1330, "unit": "nM"}, {"measurement": "half-life", "setting": "oral, subject S20 (200 lb), read-out: Terminal t1/2, h (converted)", "result": 9.6, "unit": "h"}, {"measurement": "Tmax", "setting": "oral, subject S20 (200 lb), read-out: Tmax", "result": 2, "unit": "h"}, {"measurement": "AUC(0-t)", "setting": "male, oral, 4 Cogni.Q vegicaps, Men n=10 (S1 Table), read-out: AUC0-48h, Mean", "result": 22500, "unit": "nmol·h/L"}, {"measurement": "Cmax", "setting": "male, oral, 4 Cogni.Q vegicaps, Men n=10 (S1 Table), read-out: Cmax, nM, Mean", "result": 2350, "unit": "nM"}, {"measurement": "Tmax", "setting": "male, oral, 4 Cogni.Q vegicaps, Men n=10 (S1 Table), read-out: Tmax, h, Mean", "result": 2.4, "unit": "h"}, {"measurement": "half-life", "setting": "male, oral, Men, outliers excluded (S1 Table), read-out: Terminal t1/2, h, Mean (converted)", "result": 6.6, "unit": "h"}, {"measurement": "AUC(0-t)", "setting": "male, po, Men N = 10, single oral dose Cogni.Q, read-out: AUC0–48h, h.nmol/L Mean (SD)", "result": 22500, "unit": "nmol·h/L"}, {"measurement": "Cmax", "setting": "male, po, Men N = 10, single oral dose Cogni.Q, read-out: Cmax, nmol/L, Mean (SD)", "result": 2350, "unit": "nM"}, {"measurement": "Tmax", "setting": "male, po, Men N = 10, single oral dose Cogni.Q, read-out: Tmax, h, Mean (SD)", "result": 2.4, "unit": "h"}, {"measurement": "half-life", "setting": "male, po, Men, outlier subjects excluded, single oral dose Cogni.Q, read-out: T1/2, h, terminal Mean (SD) (converted)", "result": 6.6, "unit": "h"}]}
